Test results taken from patent US20230322776A1, “NEW ARYL-PYRIDO-PYRIMIDIN-ONE DERIVATIVES” (Hoffmann-La Roche Inc., priority 2020, published 2023).

Assays:
[1] = test system: A375 cells (V600E mutated BRAF), ERK phospho-T202/Y204; experiment: HTRF assay for P-ERK determination in A375 cells (BRAF inhibition); format: cell-based; settings: Homo sapiens, A-375, 1 hour drug incubation, DMSO = 100%, 10 μM Dabrafenib = 0%, top concentration 10 μM, read-out: P-ERK_A375: IC50
Text: (§1) A375 is a cellular cancer model expressing V600E mutated BRAF and HCT116 a cellular cancer model expressing WT BRAF. First generation BRAF inhibitors such as e.g. dabrafenib induce a paradox effect on tumour cells in that they inhibit the growth of V600E mutated BRAF cells (such as e.g. A375), while they activate growth in WT BRAF cells (such as e.g. HCT 116). ERK 1,2 phosphorylation (terminal member of the phosphorylation cascade of the MAPK pathway) is hereafter reported as main readout for the activation status of the MAPK pathway. DMEM no-phenol red medium supplemented with L-glutamine was purchased from (Thermo Fisher Scientific). Fetal bovine serum (FBS) was purchased from VWR. Advanced ERK phospho-T202/Y204 kit—10,000 tests was purchased from Cisbio cat #64AERPEH. A375 (catalog #CRL-1619) and HCT116 (catalog #CCL-247) cells were originally obtained from American type Culture Collection (ATCC) and banked by the Roche repository. 384-Well microplates ultized were purchased from Greiner Bio-One, 384-well, (With Lid, HiBase, Low volume cat 784-080).
(§2) HTRF Assay for P-ERK Determination in A375 or HCT116 Cells
(§3) Prior to the assay, A375 and HCT116 cell lines are maintained in DMEM no-phenol red medium supplemented with 10% fetal bovine serum (FBS). Following compound treatment, P-ERK levels are determined by measuring FRET fluorescence signal induced by selective binding of two antibodies provided in the mentioned kit (Cisbio cat #64AERPEH) on ERK protein when phosphorylated at Thr202/Tyr204. Briefly, 8000 cells/well in 12 μl media/well are plated in the 384-well plate and left overnight in the incubator (at 37° C. with 5% CO2-humidified atmosphere), the following day the plate is treated in duplicate with test compounds, dabrafenib and PLX8394 (the latter two as controls) at the following final drug concentrations: 10 μM, 3 μM, 1 μM, 0.3 μM, 0.1 μM, 0.03 μM, 0.01 μM, 0.003 μM and 0.001 μM. All wells are subjected to DMSO normalization and drug incubation occurs for 1 hour. Then, 4 μl of a 4× lysis buffer supplied with the kit are added to the wells, the plate is then centrifuged for 30 second (3000 rpm) and incubated on a plate shaker for 1 h at rt.
(§4) At the end of the incubation 4 μl/well of advanced P-ERK antibody solution (prepared according to manufacturer's instruction) followed by 4 μl/well of criptate P-ERK antibody solution (prepared according to manufacturer's instruction) (Cisbio cat #64AERPEH) are added to test wells.
(§5) In order to allow proper data normalization, control wells non drug treated reported in the following table are always included in each plate (according to manufacturer's instruction):
(§6) The plate is then centrifuged at 3000 rpm for 30 seconds, sealed to prevent evaporation and incubated overnight in the dark at room temperature. The plate is then analyzed and fluorescence emission value collected through a Pherastast FSX (BMG Labtech) apparatus at […]. The obtained fluorescence values are processed according to the formula Ratio=[…]*10000 then the average of the ratio on the blank is subtracted to all values.
Data are normalized in the case of A375 cells (BRAF inhibition) considering the average of the ratio (blank subtracted) derived by DMSO only treated cells as 100% and by considering the average of the ratio (blank subtracted) derived by 10 μM Dabrafenib treated cells as 0%. Mean of the normalized points are fitted with sigmoidal curve and IC50 values are determined.

[2] = test system: HCT116 cells (WT BRAF), ERK phospho-T202/Y204; experiment: HTRF assay for P-ERK determination in HCT116 cells (BRAF activation, paradox); format: cell-based; settings: for EC50: Homo sapiens, HCT-116, HCT116 cells, 1 hour drug incubation, activation relative to maximum Dabrafenib-mediated activation (100%), top concentration 10 μM, read-out: P-ERK_HCT-116: EC50—50PCT; for Fold Selectivity HCT-116 EC50-50/ A375: ratio of P-ERK HCT-116 EC50-50PCT to P-ERK A375 IC50
Text: as §1, §2, §3, §4, §5, §6
Data are normalized in the case of HCT116 cells (BRAF activation) considering the average of the ratio (blank subtracted) derived by DMSO only treated cells as 0% and by considering the average of the ratio (blank subtracted) derived by Dabrafenib treated cells at the concentration which provides the highest signal as 100%. Individual points are fitted with either sigmoidal or bell shape curves, the percentage of activation compared to maximum Dabrafenib-mediated activation is determined.

BRAF = BRAF (Homo sapiens, UniProt P15056); experiment: KD BRAF (Table 1; no method described); format: binding
BRAF V660E = BRAF V660E (Homo sapiens, UniProt P15056, V600E); experiment: KD BRAF V660E (Table 1; no method described); format: binding
Sequence of BRAF V660E (P15056 2-766 V600E): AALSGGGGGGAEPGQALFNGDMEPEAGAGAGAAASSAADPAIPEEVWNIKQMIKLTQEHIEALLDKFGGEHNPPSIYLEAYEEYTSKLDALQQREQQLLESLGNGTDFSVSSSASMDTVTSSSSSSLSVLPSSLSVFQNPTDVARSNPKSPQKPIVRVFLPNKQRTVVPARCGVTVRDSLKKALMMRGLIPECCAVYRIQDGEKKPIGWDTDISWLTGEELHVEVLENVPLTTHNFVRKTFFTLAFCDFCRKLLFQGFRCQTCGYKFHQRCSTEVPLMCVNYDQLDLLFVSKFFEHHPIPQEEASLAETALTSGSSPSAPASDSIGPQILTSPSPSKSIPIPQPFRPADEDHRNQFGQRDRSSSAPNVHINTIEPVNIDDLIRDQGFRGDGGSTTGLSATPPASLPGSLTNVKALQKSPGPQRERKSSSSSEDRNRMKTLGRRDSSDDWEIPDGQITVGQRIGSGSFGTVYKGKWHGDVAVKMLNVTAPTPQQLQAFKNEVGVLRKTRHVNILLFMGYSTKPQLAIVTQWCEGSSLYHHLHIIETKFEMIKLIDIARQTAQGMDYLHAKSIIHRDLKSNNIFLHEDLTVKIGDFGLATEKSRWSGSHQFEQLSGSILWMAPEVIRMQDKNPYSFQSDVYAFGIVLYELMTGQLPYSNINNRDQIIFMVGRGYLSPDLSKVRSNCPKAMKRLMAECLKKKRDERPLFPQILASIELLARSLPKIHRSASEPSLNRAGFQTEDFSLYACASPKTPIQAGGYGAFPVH

Sequence of BRAF (P15056 whole entry): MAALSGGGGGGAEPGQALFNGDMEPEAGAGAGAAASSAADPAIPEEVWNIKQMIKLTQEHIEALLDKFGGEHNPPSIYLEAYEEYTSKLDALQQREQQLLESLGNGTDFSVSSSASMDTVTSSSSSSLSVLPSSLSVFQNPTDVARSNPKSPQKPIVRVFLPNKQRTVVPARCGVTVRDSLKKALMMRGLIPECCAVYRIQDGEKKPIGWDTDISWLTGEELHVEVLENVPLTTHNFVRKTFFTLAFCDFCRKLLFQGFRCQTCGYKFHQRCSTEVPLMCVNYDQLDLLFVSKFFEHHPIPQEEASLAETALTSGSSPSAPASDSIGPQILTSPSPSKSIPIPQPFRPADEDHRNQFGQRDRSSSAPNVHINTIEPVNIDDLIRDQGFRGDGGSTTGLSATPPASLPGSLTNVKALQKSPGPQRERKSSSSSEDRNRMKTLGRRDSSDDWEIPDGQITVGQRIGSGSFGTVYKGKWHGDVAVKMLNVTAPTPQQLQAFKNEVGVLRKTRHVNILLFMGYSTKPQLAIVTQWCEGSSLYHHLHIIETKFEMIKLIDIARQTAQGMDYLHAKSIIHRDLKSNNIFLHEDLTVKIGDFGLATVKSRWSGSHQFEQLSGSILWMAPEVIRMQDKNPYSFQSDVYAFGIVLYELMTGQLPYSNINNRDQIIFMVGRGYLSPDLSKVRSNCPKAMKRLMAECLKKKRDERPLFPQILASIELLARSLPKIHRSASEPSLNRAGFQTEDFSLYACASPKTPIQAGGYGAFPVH

Compound | IC50 [1] | EC50 [2] | Fold Selectivity HCT-116 EC50-50/ A375 [2] | Kd (BRAF) | Kd (BRAF V660E)
CCN(C)S(=O)(=O)Nc1ccc(F)c(-c2cc3cnc(NCC4CC4)nc3n(CCOCc3ccccc3)c2=O)c1F [Example 44, 2-(Cyclopropylmethylamino)-6-[3-[[ethyl(methyl)sulfamoyl]amino]-2,6-difluorophenyl]-7-oxo-8-(2-phenylmethoxyethyl)pyrido[2,3-d]pyrimidine] | 1900 nM | ≥ 10000 nM | >5.3 | 1380 nM | 1750 nM
CCN(C)S(=O)(=O)Nc1ccc(F)c(-c2cc3cnc(NCCCN(C)C(C)=O)nc3n(C)c2=O)c1F [Example 30, N-[3-[[6-[3-[[ethyl(methyl)sulfamoyl]amino]-2,6-difluorophenyl]-8-methyl-7-oxopyrido[2,3-d]pyrimidin-2-yl]amino]propyl]-N-methylacetamide] | 287 nM | 5700 nM | 19.8 | 72.3 nM | 159 nM
Cn1c(=O)c(-c2c(F)ccc(NS(=O)(=O)N3CCCC3)c2F)cc2cnc(NCCC3CCN(C(=O)OC(C)(C)C)CC3)nc21 [Example 8, tert-butyl 4-[2-[[6-[2,6-difluoro-3-(pyrrolidin-1-ylsulfonylamino)phenyl]-8-methyl-7-oxopyrido[2,3-d]pyrimidin-2-yl]amino]ethyl]piperidine-1-carboxylate] | 241 nM | 9760 nM | 40.5 | 261 nM | 314 nM
CNCCCNc1ncc2cc(-c3c(F)ccc(NS(=O)(=O)N4CC[C@@H](F)C4)c3F)c(=O)n(C)c2n1.Cl [Example 16, (3R)-N-[2,4-difluoro-3-[8-methyl-2-[3-(methylamino)propylamino]-7-oxopyrido[2,3-d]pyrimidin-6-yl]phenyl]-3-fluoropyrrolidine-1-sulfonamide hydrochloride] | 687 nM | ≥ 10000 nM | 14.6 | 148 nM | 296 nM
Cl.O=c1c(-c2c(F)ccc(NS(=O)(=O)N3CC[C@@H](F)C3)c2F)cc2cnc(NCC3CC3)nc2n1C1CCNC1 (mixture of isomers) [Example 40, (3R)-N-[3-[2-(cyclopropylmethylamino)-7-oxo-8-[(3RS)-pyrrolidin-3-yl]pyrido[2,3-d]pyrimidin-6-yl]-2,4-difluorophenyl]-3-fluoropyrrolidine-1-sulfonamide hydrochloride] | 3810 nM | ≥ 10000 nM | 2.6 | 145 nM | 408 nM
CCN(C)S(=O)(=O)Nc1ccc(F)c(-c2cc3cnc(NCCCNC)nc3n(C)c2=O)c1F.Cl [Example 17, 6-[3-[[ethyl(methyl)sulfamoyl]amino]-2,6-difluorophenyl]-8-methyl-2-[3-(methylamino)propylamino]-7-oxopyrido[2,3-d]pyrimidine hydrochloride] | 1260 nM | 7520 nM | 6.0 | 168 nM | 385 nM

Molecules with a lower IC50 [1], results first:

IC50 [1] | EC50 [2] | Fold Selectivity HCT-116 EC50-50/ A375 [2] | Kd (BRAF) | Kd (BRAF V660E) | Compound
207 nM | 5870 nM | 28.3 | 25.5 nM | 71.6 nM | Cl.Cn1c(=O)c(-c2c(F)ccc(NS(=O)(=O)N3CC[C@@H](F)C3)c2F)cc2cnc(NCCCC3CCNCC3)nc21 [Example 18, (3R)-N-[2,4-difluoro-3-[8-methyl-7-oxo-2-(3-piperidin-4-ylpropylamino)pyrido[2,3-d]pyrimidin-6-yl]phenyl]-3-fluoropyrrolidine-1-sulfonamide hydrochloride]
184 nM | ≥ 10000 nM | >54.4 | 7.1 nM | 20.8 nM | CC(=O)N1CC(Nc2ncc3cc(-c4c(F)ccc(NS(=O)(=O)N5CC[C@@H](F)C5)c4F)c(=O)n(C)c3n2)C1 [Example 22, (3R)-N-[3-[2-[(1-acetylazetidin-3-yl)amino]-8-methyl-7-oxopyrido[2,3-d]pyrimidin-6-yl]-2,4-difluorophenyl]-3-fluoropyrrolidine-1-sulfonamide]
86.7 nM | ≥ 10000 nM | >115.3 | 62 nM | 109 nM | CC(=O)N1CCC(CNc2ncc3cc(-c4c(F)ccc(NS(=O)(=O)N5CC[C@@H](F)C5)c4F)c(=O)n(C)c3n2)CC1 [Example 21, (3R)-N-[3-[2-[(1-acetylpiperidin-4-yl)methylamino]-8-methyl-7-oxopyrido[2,3-d]pyrimidin-6-yl]-2,4-difluorophenyl]-3-fluoropyrrolidine-1-sulfonamide]
64.2 nM | 3530 nM | 55.0 | 96.7 nM | 224 nM | Cn1c(=O)c(-c2c(F)ccc(NS(=O)(=O)N3CC[C@@H](F)C3)c2F)cc2cnc(NCCc3ccc(CC(=O)OC(C)(C)C)cc3)nc21 [Example 46, tert-butyl 2-[4-[2-[[6-[2,6-difluoro-3-[[(3R)-3-fluoropyrrolidin-1-yl]sulfonylamino]phenyl]-8-methyl-7-oxopyrido[2,3-d]pyrimidin-2-yl]amino]ethyl]phenyl]acetate]
54.8 nM | 1830 nM | 33.4 | 9.6 nM | 41.9 nM | CC(=O)N(C)CCCNc1ncc2cc(-c3c(F)ccc(NS(=O)(=O)N4CC[C@@H](F)C4)c3F)c(=O)n(C)c2n1 [Example 27, N-[3-[[6-[2,6-difluoro-3-[[(3R)-3-fluoropyrrolidin-1-yl]sulfonylamino]phenyl]-8-methyl-7-oxopyrido[2,3-d]pyrimidin-2-yl]amino]propyl]-N-methylacetamide]
42.6 nM | 394 nM | 9.2 | 46.5 nM | 115 nM | Cn1c(=O)c(-c2c(F)ccc(NS(=O)(=O)N3CC[C@@H](F)C3)c2F)cc2cnc(NCCCc3ccccc3)nc21 [Example 5, (3R)-N-[2,4-difluoro-3-[8-methyl-7-oxo-2-(3-phenylpropylamino)pyrido[2,3-d]pyrimidin-6-yl]phenyl]-3-fluoropyrrolidine-1-sulfonamide]
26.8 nM | 1480 nM | 55.1 | – | – | Cn1c(=O)c(-c2c(F)ccc(NS(=O)(=O)N3CC[C@@H](F)C3)c2F)cc2cnc(NCCN3CCN(C(=O)OC(C)(C)C)CC3)nc21 [Example 45, tert-butyl 4-[2-[[6-[2,6-difluoro-3-[[(3R)-3-fluoropyrrolidin-1-yl]sulfonylamino]phenyl]-8-methyl-7-oxopyrido[2,3-d]pyrimidin-2-yl]amino]ethyl]piperazine-1-carboxylate]
